We go through 17 compounds from article PMC9689838, “Screening and Identification of Novel Soluble Epoxide Hydrolase Inhibitors from Corn Gluten Peptides” (Foods, 2022).

Molecules are shown by their SMILES. Like-named read-outs stand apart in the source and are kept apart here. Where a SMILES comes first, the peptide text is derived from it.

Assay [1] concerns the target T1, Human soluble epoxide hydrolase (sEH) (Homo sapiens, UniProt P34913).
T1 construct: purchased Cayman Chemical (Ann Arbor, MI, USA)
T1 sequence (P34913 1-555): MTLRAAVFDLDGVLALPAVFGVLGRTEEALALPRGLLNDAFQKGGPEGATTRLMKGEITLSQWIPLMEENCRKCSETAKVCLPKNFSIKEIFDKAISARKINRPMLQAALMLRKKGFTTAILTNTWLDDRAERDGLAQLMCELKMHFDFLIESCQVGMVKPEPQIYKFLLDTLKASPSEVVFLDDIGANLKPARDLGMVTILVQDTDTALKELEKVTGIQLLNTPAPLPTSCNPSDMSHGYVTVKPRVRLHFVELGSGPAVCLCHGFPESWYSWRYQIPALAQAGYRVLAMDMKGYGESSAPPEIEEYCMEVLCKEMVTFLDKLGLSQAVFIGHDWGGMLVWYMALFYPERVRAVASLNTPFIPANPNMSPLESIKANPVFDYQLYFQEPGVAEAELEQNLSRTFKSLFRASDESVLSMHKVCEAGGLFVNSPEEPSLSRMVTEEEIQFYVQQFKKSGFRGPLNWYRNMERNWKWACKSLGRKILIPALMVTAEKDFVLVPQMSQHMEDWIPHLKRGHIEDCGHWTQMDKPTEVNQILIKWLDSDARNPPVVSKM
Put plainly: sEH inhibitory activity assay with fluorescent substrate PHOME. The format is biochemical. Particulars: 10 µM PHOME, 40 min, mean ± SD n = 3; for inhibition at 100 µM: peptide 100 µM final, 62.5 ng/mL sEH, 37 °C; for IC50: synthesized peptides 20-100 µM. On the procedure:
The effects of the concentrations of the enzyme, substrate, and the hydrolysis time of sEH on PHOME were determined according to the methods reported previously. […] After incubating at 37 °C for 5 to 50 min, the fluorescence intensity was measured at an emission wavelength of 465 nm and an excitation wavelength of 330 nm. Bis-Tris-HCl instead of PHOME was used as the blank control. The reaction rate of the system was calculated as follows:(1) The reaction rate (RFU/min)=St - Ct/t where St (RFU) and Ct (RFU) represent the fluorescence intensity of the sample and blank group at t min, respectively. The t (min) represents the reaction time.
The sEH inhibitory activities of peptides were determined as above described. Briefly, 130 µL of 62.5 ng/mL human sEH solution (final concentrations, dissolved in 25 mM bis-Tris-HCl containing 0.1% BSA, pH 7.0) and 20 µL of peptides (final concentrations: synthesized peptides, 20, 40, 60, 80, and 100 µM; corn gluten peptides, 1, 2, 3, 4, and 5 mg/mL, respectively) were added to 96-well plate followed by adding 50 µL of 10 µM PHOME solution (final concentration, dissolved in 25 mM bis-Tris-HCl containing 0.1% BSA, pH 7.0). After incubating at 37 °C for 5 to 40 min, the fluorescence intensity of the mixture at an emission wavelength of 465 nm and an excitation wavelength of 330 nm was determined. […] The sEH inhibitory activity was calculated as follows:(2) sEH inhibitory activity (%)=C40 - S40/C40 - C0×100% where C40 (RFU) and C0 (RFU) represented the fluorescence intensity of the blank control group at 40 and 0 min, respectively. S40 (RFU) represented the fluorescence intensity of the sample group at 40 min.

The test system of a further assay is sEH. Particulars: read-out: IC50, sEH inhibitory activity, cited from earlier work.
Setting [2] is: isolated from Capsicum chinense.

In assay [1], `N[C@@H](Cc1ccc(O)cc1)C(=O)N[C@@H](Cc1ccccc1)C(=O)N[C@@H](Cc1ccc(O)cc1)C(=O)O` [YFY] (H-Tyr-Phe-Tyr-OH) yielded an inhibition at 100 µM of 53 ± 3.09% and an IC50 of 94.1 ± 12.9 µM.

As for `CC(C)C(=O)Nc1ccc([N+](=O)[O-])c(C(F)(F)F)c1` [flutamide], the IC50 with sEH (from Scutellaria baicalensis) is 6.32 ± 0.31 µM.

Regarding `C[C@H]1[C@H](C)CC[C@]2(C(=O)O)CC[C@]3(C)C(=CC[C@@H]4[C@@]5(C)CC[C@H](O)C(C)(C)[C@@H]5CC[C@]43C)[C@H]12` [ursolic acid], the IC50 in the assay on sEH is 84.5 ± 9.5 µM.

In the case of `O=c1c(O)c(-c2ccc(O)c(O)c2)oc2cc(O)cc(O)c12` [quercetin], the IC50 in the assay with sEH was 22.5 ± 0.9 µM.

In assay [1], `N[C@@H](Cc1c[nH]c2ccccc12)C(=O)N[C@@H](Cc1ccc(O)cc1)C(=O)N[C@@H](Cc1c[nH]c2ccccc12)C(=O)O` [WYW] (H-Trp-Tyr-Trp-OH) showed an inhibition at 100 µM of 60.3 ± 5.6% and a 50% inhibitory concentration (IC50) of 70.7 ± 9.9 µM.

With `COc1cc(CNC(=O)CCCCCCC(C)C)ccc1O` [dihydrocapsaicin], in the assay with sEH (setting [2]), the IC50 was 7.3 ± 0.7 µM.

Regarding `N[C@@H](Cc1c[nH]c2ccccc12)C(=O)N[C@@H](Cc1c[nH]c2ccccc12)C(=O)N[C@@H](Cc1ccc(O)cc1)C(=O)O` [WWY] (H-Trp-Trp-Tyr-OH), in assay [1], the inhibition at 100 µM was 55.1 ± 2.38% and the IC50 worked out at 68.8 ± 7.72 µM.

`CCCCC/C=C/C=C/C(=O)NCC(C)C` [pellitorine]: the IC50 in the assay on sEH (from Scutellaria baicalensis) is 93.7 ± 4.52 µM.

For `N[C@@H](Cc1c[nH]c2ccccc12)C(=O)N[C@@H](CCC(=O)O)C(=O)N[C@@H](Cc1ccc(O)cc1)C(=O)O` [WEY] (H-Trp-Glu-Tyr-OH), in assay [1], the inhibition at 100 µM was found to be 70 ± 6.25% and it took 55.4 ± 1.55 µM to reach half-maximal inhibition (IC50).

On to `CC(C)CNC(=O)/C=C/CCc1ccc2c(c1)OCO2` [dihydropiperlonguminine], for which, in the assay on sEH (from Scutellaria baicalensis), the IC50 was 7.83 ± 0.52 µM.

For the compound `C[C@H]1[C@H](C)CC[C@]2(C(=O)O)CC[C@]3(C)C(=CC[C@@H]4[C@@]5(C)C[C@@H](O)[C@H](O)C(C)(C)[C@@H]5CC[C@]43C)[C@H]12` [corosolic acid], the IC50 with sEH was 51.3 ± 4.9 µM.

Turning to `CC(C)CNC(=O)/C=C/C=C/c1ccc2c(c1)OCO2` [piperlonguminine], in the assay with sEH (from Scutellaria baicalensis), the IC50 was 6.06 ± 0.12 µM.

On to `COc1cc(CNC(=O)CCCC/C=C/C(C)C)ccc1O` [capsaicin], for which, in the assay with sEH (setting [2]), the IC50 was 5.6 ± 1.2 µM.

As to `O=c1c(O[C@H]2OC[C@@H](O)[C@@H](O)[C@@H]2O)c(-c2ccc(O)c(O)c2)oc2cc(O)cc(O)c12` [quercetin-3-O-arabinoside], the IC50 in the assay with sEH is 39.3 ± 3.4 µM.

In the case of `O=c1c(O)c(-c2ccc(O)cc2)oc2cc(O)cc(O)c12` [kaempferol], the half-inhibitory concentration (IC50) with sEH is 31.3 ± 2.6 µM.

With `C[C@@H]1CC[C@]2(C(=O)O)CC[C@]3(C)C(=CC[C@@H]4[C@@]5(C)CC(=O)[C@H](O)C(C)(C)[C@@H]5CC[C@]43C)[C@@H]2[C@]1(C)O` [2-oxopomolic acid], the IC50 with sEH is 11.4 ± 2.7 µM.

Regarding `N[C@@H](Cc1ccc(O)cc1)C(=O)N[C@@H](Cc1ccccc1)C(=O)N[C@@H](Cc1c[nH]c2ccccc12)C(=O)O` [YFW] (H-Tyr-Phe-Trp-OH), in assay [1], the inhibition at 100 µM amounted to 57.4 ± 7.62% and the IC50 amounted to 96 ± 7.5 µM.
